Results published in patent publication US9156790B2, “Anticancer P21-activated kinase inhibitors” (Ohio State Innovation Foundation, priority 2013, dated 2015).
“Also recorded” adds a separate entry of the source.

Columns and labels:
Ret = Ret (Homo sapiens, UniProt P07949); test: Kinase profiling panel: Ret; type: biochemical; details: 5 μM compound; average of triplicate
Procedure: (§1) To further probe the selectivity of the compounds 4 and 15, they were subjected for kinase profiling service for screening against a panel of other kinases selected based on the kinase tree at 5 μM concentration, at or above the IC50 for the two compounds versus PAK in both in vitro and cell-based assays. […] PAK1 was not available for testing using this system thus it was not possible to compare directly in this assay system.

PKCδ = PKCδ (Homo sapiens, UniProt Q05655); test: Kinase profiling panel: PKCδ; type: biochemical; details: 5 μM compound; average of triplicate
Sequence of PKCδ (Q05655 whole entry): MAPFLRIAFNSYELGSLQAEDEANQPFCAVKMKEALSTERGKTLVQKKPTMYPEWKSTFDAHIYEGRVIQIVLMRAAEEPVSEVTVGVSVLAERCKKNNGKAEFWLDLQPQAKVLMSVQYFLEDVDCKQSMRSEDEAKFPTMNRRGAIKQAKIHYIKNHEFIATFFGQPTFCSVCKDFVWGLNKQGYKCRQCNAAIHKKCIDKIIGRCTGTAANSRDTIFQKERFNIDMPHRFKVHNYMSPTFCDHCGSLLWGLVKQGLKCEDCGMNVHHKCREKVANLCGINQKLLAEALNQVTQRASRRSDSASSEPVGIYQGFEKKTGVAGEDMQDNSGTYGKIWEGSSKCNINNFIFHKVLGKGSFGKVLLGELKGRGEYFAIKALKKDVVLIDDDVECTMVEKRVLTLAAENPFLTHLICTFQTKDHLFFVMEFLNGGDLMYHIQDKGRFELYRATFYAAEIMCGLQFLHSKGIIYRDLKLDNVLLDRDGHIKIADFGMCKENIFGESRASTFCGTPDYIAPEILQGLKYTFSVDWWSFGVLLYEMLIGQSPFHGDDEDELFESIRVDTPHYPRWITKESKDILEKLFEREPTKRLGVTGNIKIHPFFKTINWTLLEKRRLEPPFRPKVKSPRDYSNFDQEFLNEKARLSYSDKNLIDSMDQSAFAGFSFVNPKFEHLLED
Procedure: as §1

Recombinant active PAK 1 = biological target: T1, Recombinant active PAK 1 (Homo sapiens, UniProt Q13153); test: In vitro PAK1 kinase assay (MBP substrate, 32P-ATP); type: biochemical; details: for Inhibition of PAK1 kinase activity in initial screen: 7.5 μM inhibitor, 2.5 μM ATP, myelin basic protein substrate (FIG. 2A); for ATP competition for PAK1: ATP 5-40 μM, Lineweaver-Burk analysis (FIG. 2C); for Relative PAK1 inhibitory potency (comparison in words) / IC50: in vitro kinase assay; for Relative PAK1 inhibitory potency (comparison in words): comparison between compounds / with OSU-03012; for IC50: read-out: IC50 versus PAK, in vitro (bound implied by chosen test concentration)
T1 construct: purchased Calbiochem
T1 sequence (Q13153 whole entry): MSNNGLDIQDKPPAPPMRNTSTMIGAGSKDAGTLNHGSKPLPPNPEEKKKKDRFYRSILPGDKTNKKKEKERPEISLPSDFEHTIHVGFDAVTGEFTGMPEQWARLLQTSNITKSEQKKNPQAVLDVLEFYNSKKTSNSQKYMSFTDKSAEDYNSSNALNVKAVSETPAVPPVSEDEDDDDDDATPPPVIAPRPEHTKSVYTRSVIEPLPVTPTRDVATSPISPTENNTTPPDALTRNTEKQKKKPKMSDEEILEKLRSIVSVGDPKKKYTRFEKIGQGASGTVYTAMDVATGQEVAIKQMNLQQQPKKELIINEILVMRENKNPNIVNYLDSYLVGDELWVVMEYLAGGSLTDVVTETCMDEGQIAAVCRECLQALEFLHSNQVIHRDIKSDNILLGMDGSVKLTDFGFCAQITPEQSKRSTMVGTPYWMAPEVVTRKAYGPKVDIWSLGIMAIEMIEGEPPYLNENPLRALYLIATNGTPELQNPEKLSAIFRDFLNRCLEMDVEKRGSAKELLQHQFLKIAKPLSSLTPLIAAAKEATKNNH
Procedure: Recombinant active PAK 1 (Calbiochem) was incubated with selected derivatives or 0.1% DMSO in the presence or absence of MBP (Sigma) in a 1× kinase buffer (Cell Signaling). The addition of [γ-32P]-ATP (2.5 μCi/reaction) (Perkin Elmer) started the reaction, which was incubated at 30° C. for 30 minutes. The reaction was terminated by the addition of EDTA. Results were obtained after visualization of ^32P-labeled MBP after separation on 12% polyacrylamide gels and autoradiography. For the Lineweaver-Burk plot analysis, the ratio of radioactive ATP to nonradioactive ATP was not altered. The PAK1 kinase activities are the means of three independent experiments quantified using P81 phosphocellulose paper by a scintillation counter after three washes with 0.75% phosphoric acid.
Screening of OSU-03012 Derivatives to Identify PAK1 Inhibitors. The 17 derivatives along with OSU-03012, each at 7.5 μM, were screened for their ability to inhibit PAK1 activity by in vitro PAK1 kinase assay. The dose was chosen (above the IC50 of OSU-03012) to allow OSU-03012 to serve as a robust positive control. The PAK1 kinase assay was performed using recombinant active PAK1 with myelin basic protein as substrate in the presence of 2.5 μM ATP and 7.5 μM of respective inhibitors.
To further investigate these six compounds, dose-response studies on PAK1 activity were performed by using PAK1 kinase assay. […] We next questioned whether compounds 4 or 15 inhibited PAK1 in an ATP competitive manner as their parent compound OSU-03012.

other PAK kinases = test: Kinase profiling panel: other PAK kinases (summary statement); type: biochemical; details: 5 μM compound
Procedure: as §1

PKBγ = PKBγ (Homo sapiens, UniProt Q9Y243); test: Kinase profiling panel: PKBγ; type: biochemical; details: 5 μM compound; for remaining activity at 5 µM: average of triplicate, read-out: % activity vs. DMSO, PKBγ
Sequence of PKBγ (Q9Y243 whole entry, species assumed): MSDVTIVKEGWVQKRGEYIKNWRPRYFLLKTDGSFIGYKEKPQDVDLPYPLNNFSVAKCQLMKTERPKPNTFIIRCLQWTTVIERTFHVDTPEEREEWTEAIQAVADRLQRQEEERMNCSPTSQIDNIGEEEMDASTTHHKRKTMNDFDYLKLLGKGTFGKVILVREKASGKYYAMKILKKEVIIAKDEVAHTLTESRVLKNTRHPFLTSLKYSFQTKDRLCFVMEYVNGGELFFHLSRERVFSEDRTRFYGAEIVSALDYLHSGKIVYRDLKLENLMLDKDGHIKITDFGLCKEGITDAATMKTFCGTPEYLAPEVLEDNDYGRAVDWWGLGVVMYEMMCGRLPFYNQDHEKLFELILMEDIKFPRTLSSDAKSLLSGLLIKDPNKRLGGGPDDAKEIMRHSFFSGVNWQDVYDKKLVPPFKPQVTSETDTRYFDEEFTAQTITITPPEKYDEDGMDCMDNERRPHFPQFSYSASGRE
Procedure: as §1

GSK3α = GSK3α (Homo sapiens, UniProt P49840); test: Kinase profiling panel: GSK3α; type: biochemical; details: 5 μM compound; average of triplicate
Sequence of GSK3α (P49840 whole entry, species assumed): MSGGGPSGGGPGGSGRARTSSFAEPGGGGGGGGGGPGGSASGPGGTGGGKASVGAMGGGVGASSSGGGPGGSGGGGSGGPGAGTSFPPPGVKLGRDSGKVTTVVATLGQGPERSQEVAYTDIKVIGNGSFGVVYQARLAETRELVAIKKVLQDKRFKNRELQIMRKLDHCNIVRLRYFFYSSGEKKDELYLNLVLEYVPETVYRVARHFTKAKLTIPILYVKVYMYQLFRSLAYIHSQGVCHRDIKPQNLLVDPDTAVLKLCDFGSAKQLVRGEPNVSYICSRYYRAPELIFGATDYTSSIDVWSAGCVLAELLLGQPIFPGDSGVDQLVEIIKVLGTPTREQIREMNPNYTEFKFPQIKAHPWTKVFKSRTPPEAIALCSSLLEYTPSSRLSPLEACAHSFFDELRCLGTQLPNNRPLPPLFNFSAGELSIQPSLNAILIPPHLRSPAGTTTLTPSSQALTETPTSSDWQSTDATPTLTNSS
Procedure: as §1

EGFR = EGFR (Homo sapiens, UniProt P00533); test: Kinase profiling panel: EGFR; type: biochemical; details: 5 μM compound; average of triplicate
Sequence of EGFR (P00533 25-1210, species assumed): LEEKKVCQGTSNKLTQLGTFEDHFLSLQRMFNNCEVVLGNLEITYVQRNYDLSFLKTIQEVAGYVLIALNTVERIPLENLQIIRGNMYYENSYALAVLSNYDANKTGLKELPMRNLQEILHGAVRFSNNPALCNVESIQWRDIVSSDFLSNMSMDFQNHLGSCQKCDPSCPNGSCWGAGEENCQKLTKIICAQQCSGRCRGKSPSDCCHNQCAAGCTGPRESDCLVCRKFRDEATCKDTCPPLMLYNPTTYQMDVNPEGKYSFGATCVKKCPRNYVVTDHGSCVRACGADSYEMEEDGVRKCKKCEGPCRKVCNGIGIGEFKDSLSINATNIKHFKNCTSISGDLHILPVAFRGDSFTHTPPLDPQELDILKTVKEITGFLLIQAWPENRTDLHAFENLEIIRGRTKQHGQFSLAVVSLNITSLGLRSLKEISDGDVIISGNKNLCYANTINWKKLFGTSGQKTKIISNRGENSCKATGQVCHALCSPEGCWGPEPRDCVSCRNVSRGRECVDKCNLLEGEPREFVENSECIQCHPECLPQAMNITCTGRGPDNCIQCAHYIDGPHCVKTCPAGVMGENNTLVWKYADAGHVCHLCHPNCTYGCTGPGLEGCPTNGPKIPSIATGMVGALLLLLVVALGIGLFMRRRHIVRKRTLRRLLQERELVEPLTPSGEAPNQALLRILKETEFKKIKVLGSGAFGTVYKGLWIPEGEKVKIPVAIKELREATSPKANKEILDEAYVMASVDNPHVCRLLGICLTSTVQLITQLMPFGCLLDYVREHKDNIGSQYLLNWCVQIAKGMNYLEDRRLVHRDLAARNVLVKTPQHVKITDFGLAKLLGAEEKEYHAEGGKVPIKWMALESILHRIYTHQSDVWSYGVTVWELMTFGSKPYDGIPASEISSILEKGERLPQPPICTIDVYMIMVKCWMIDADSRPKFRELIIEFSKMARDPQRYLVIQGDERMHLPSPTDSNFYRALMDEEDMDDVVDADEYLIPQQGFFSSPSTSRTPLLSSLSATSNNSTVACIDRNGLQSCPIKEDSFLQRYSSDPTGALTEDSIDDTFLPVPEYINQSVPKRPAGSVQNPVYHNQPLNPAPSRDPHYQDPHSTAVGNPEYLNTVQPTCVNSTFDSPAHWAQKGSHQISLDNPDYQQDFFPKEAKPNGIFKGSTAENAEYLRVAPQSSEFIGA
Procedure: as §1

TPC1 cells = test: MTT cell viability assay, TPC1; type: cell-based, Human; details: Homo sapiens, TPC1, 72-hours of exposure, 1% FBS, mean±standard deviation (n=3), read-out: IC50 for reducing viability of TPC1 cells versus DMSO control
Source text: Human thyroid cancer BCPAP, TPC1, and FTC133 cell lines were the generous gifts of Drs. Rebecca Schweppe and Bryan Haugen (University of Colorado Denver) (Schweppe et al., The Journal of clinical endocrinology and metabolism 83:4331-4341 (2008)) with permission from the following originating laboratories: BCPAP—Dr. Fabien, Centre Hospitalier Lyon-Sud, France (Fabien et al., Cancer 73:2206-2212 (1994)); TPC1—Dr. Sato, Kanazawa University, Japan (Tanaka et al., Virology 161:62-411 (1987)); and FTC133—Dr. Goretzki, University of Leipzig, Germany (Goretzki et al., Recent Results Cancer Res 118:48-63 (1990)). The obtained cell lines were confirmed for identity by DNA fingerprinting. BCPAP was grown in RPMI 1640 medium (Life Technologies Co., Carlsbad, Calif.) while FTC133 and TPC1 were grown in DMEM (Life Technologies Co.), both supplemented with 10% fetal bovine serum (FBS) and NEAA unless as noted for experiments.
The effect of OSU-03012 and its derivatives on cell viability was assessed by using the 3-(4,5-dimethylthiazol-2-yl)-2,5-diphenyl-2H-tetrazolium bromide (MTT) assay. Three replicates were performed in each individual experiment, and experiments were repeated at least three separate times. Cells were grown in 96-well plates for 24 hours and were exposed to various concentrations of drugs dissolved in DMSO (final concentration 0.1%) in RPMI 1640 or DMEM containing 1% FBS for 72 hours. 10 μL of 0.5 mg/ml MTT was added to each well and cells were incubated in CO2 at 37° C. for 2 hours. Supernatants were removed from the wells, the reduced MTT dye was solubilized in 100 μL of solution C (12 ml of 1N HCl in 300 mL of isopropanol), and absorbance at 570 nm was determined on a microplate reader.
We assessed the ability of the compounds to reduce cell viability in vitro by MTT assay after 72 hours of continuous exposure. Results are shown in Table 1 and are depicted as the IC50 vs. simultaneously performed DMSO control.
^aThe reported IC50 values are concentrations at which BCPAP, FTC133 and TPC1 cell viability by MTT assays 50% of DMSO control after 72-hours of exposure. Data are presented as mean±standard deviation (n=3). PAK and PDK1 Selectivity In Vivo

Sequence of Ret (P07949 29-1114, species assumed): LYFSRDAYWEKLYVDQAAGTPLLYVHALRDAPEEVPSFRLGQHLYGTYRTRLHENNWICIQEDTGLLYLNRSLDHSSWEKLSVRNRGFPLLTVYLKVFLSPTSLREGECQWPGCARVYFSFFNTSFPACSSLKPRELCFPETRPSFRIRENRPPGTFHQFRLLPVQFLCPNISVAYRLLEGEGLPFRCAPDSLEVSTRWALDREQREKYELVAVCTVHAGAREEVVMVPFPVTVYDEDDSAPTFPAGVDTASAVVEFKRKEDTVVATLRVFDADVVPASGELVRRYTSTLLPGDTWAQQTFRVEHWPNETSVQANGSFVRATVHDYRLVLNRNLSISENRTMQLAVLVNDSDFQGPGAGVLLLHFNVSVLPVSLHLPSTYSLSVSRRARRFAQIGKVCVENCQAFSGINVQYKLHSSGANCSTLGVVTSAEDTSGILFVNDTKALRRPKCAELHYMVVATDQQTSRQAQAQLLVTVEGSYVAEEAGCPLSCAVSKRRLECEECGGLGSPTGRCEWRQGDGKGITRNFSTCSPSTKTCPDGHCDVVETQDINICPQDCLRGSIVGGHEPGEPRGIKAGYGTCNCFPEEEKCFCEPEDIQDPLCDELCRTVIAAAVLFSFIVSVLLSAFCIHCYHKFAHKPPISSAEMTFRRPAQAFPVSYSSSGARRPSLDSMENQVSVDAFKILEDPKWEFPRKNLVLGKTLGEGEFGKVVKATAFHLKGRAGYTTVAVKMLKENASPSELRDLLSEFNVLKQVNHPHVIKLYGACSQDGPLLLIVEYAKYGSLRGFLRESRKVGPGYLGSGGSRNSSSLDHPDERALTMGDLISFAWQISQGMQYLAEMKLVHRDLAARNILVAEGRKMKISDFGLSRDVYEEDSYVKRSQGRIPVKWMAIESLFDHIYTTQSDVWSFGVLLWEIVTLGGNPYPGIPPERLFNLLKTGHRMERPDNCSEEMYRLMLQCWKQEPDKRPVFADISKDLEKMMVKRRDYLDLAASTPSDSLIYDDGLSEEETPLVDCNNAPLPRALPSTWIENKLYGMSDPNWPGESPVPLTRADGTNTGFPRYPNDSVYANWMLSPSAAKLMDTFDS

Compound	% activity vs. DMSO, Ret (Ret) [%]	% activity vs. DMSO, PKCδ (PKCδ) [%]	Inhibition of PAK1 kinase activity in initial screen (Recombinant active PAK 1)	ATP competition for PAK1 (Recombinant active PAK 1)	Relative PAK1 inhibitory potency (comparison in words) (Recombinant active PAK 1)	IC50 (Recombinant active PAK 1) [nM]	Activity versus other PAK kinases (other PAK kinases)	inhibition at 5 µM (PKBγ) [%]	remaining activity at 5 µM (PKBγ) [%]	% activity vs. DMSO, GSK3α (GSK3α) [%]	% activity vs. DMSO, EGFR (EGFR) [%]	IC50 (TPC1 cells) [nM]
NCCC(=O)Nc1ccc(-n2nc(C(F)(F)F)cc2-c2ccc3ccc4ccccc4c3c2)cc1 [Compound 4, 3-amino-N-(4-(5-(phenanthren-3-yl)-3-(trifluoromethyl)-1H-pyrazol-1-yl)phenyl)-propanamide]	97	85	inhibited PAK1 kinase activity	competed with ATP binding to PAK1	comparable PAK1 inhibitory activity to OSU-03012; also recorded: more potent than the other compounds	≤ 5000	did not have activity versus other PAK kinases	> 50	33	133	99	1680 ± 320
CC(C)NC(=O)c1cc(-c2ccc3ccc4ccccc4c3c2)n(-c2ccc(NC(=O)CN)cc2)n1 [Compound 15, 1-(4-(2-Aminoacetamido)phenyl)-N-isopropyl-5-(phenanthren-3-yl)-1H-pyrazole-3-carboxamide]	76	110	inhibited PAK1 kinase activity	competed with ATP binding to PAK1	relative enhancement in activity; also recorded: comparable PAK1 inhibitory activity to OSU-03012; also recorded: more potent than the other compounds	≤ 5000	did not have activity versus other PAK kinases		56	118	100	2660 ± 1050
